Data published in the NIST ThermoML archive (doi:10.1021/je060032n).

Tests used:
[1] = xn = mol fraction of the nth substance listed; details: 101 kPa, Liquid, x2 = 0; for viscosity: Capillary tube (Ostwald / Ubbelohde) method
[2] = refractive index (Na D-line) (dimensionless); xn = mol fraction of the nth substance listed; details: 101 kPa, Liquid, Standard Abbe refractometry, x2 = 0
[3] = 101 kPa, Liquid; for viscosity: Capillary tube (Ostwald / Ubbelohde) method
[4] = refractive index (Na D-line) (dimensionless); details: 101.33 kPa, Liquid, Standard Abbe refractometry

O [water] + NCCNCCO
Details	mass density, [1] [kg/m3]	refractive index, [2]	viscosity, [1] [mPa·s]
298.15 K	–	1.33258	0.882
303.15 K	–	1.33202	0.804
313.15 K	–	1.33067	0.659
323.15 K	988.03	1.32909	0.551
333.15 K	983.19	1.3273	0.47
343.15 K	977.75	–	0.407

NCCNCCO [N-(2-aminoethyl)ethanolamine]
Details	mass density, [3] [kg/m3]	refractive index, [4]	viscosity, [3] [mPa·s]
298.15 K	1025.28	1.48454	98.6
303.15 K	1021.53	1.48269	70.5
313.15 K	1014.02	1.47884	39.4
323.15 K	1006.44	1.47516	23.4
333.15 K	998.83	1.47128	14.8
343.15 K	991.15	–	10.1
